According to PMC10743086, “Immunofluorescence-Based Assay for High-Throughput Analysis of Multidrug Resistance Markers in Non-Small Cell Lung Carcinoma Patient-Derived Cells” (Diagnostics, 2023):

What was measured:
Assay type in all cases: cell-based, human
[1] = tested on: MRC-5 cells; experiment: Cytotoxicity by immunofluorescence cell scoring (cell counts), normal fibroblasts; details: 24 h treatment
Method: (§1) Vinorelbine and pemetrexed were purchased from Selleckchem (Houston, TX, USA). Carboplatin, cisplatin, docetaxel, etoposide, gemcitabine, gefitinib, and paclitaxel were purchased from Sigma-Aldrich Chemie GmbH (Taufkirchen, Germany). The cisplatin, carboplatin, and gemcitabine were dissolved in sterile water, while the etoposide, docetaxel, vinorelbine, paclitaxel, gefitinib, and pemetrexed were dissolved in DMSO and stored at −20 °C. Before treatment, all the stock solutions were freshly diluted in sterile water.
(§2) The compounds were administered 48 h after seeding. The treatment lasted 24 h.
(§3) The immunofluorescence assay for the quantification of MDR markers was optimized to distinguish cancer cells from stromal cells using a cytokeratin 8/18 (CK8/18) antibody cocktail. The cells were fixed with 4% paraformaldehyde for 20 min at RT and washed three times with PBS using the Wellwash Versa microplate washer (Thermo Fisher Scientific, Waltham, MA, USA). The cells were then blocked with 2% bovine serum albumin (BSA) in PBS for 1 h at RT. […] Co-immunostaining with antibodies against MDR markers was performed to detect the presence of ABCB1, ABCC1, and ABCG2 in both the cancer and stromal cells. […] The secondary antibodies were incubated with the cells at RT for 2 h in the dark. […] Finally, the cells were washed three times with PBS and stored at 4 °C in the dark before imaging.
(§4) The fluorescently labeled cells were imaged using the ImageXpress Pico Automated Cell Imaging System (Molecular Devices, San Jose, CA, USA) with a 4x objective after determining the appropriate exposure time for each illumination filter. Analysis of the obtained images was performed using CellReporterXpress software v. 2.8.2.669 (Molecular Devices). The cytotoxicity of the compounds was determined using the Cell Scoring Analysis Protocol. […] Expression of MDR markers was determined using the Multi-Wavelength Cell Scoring Analysis Protocol.

[2] = tested on: Non-cancer cells (CK8/18-) of patient-derived NSCLC cultures; experiment: Cytotoxicity in patient-derived NSCLC cultures, non-cancer cells; details: 7 days treatment
Method: (§5) Tissue samples were collected during surgery, and the NSCLC diagnosis, histological grade, stage, necrosis, and lymph node invasion status were determined by histopathological analysis. […] The surgical specimens were placed in a sterile tube containing antibiotic-antimycotic solution (Sigma-Aldrich Chemie GmbH, Taufkirchen, Germany) and immediately transported to the research laboratory for further processing.
(§6) Upon arrival, the tissue was manually chopped with a surgical blade in a Petri dish under sterile conditions. The samples were cut into 3–5 mm pieces and further dissociated using the Tumor Dissociation Kit (Miltenyi Biotec, Bergisch Gladbach, Germany). The Tumor Dissociation Kit was used to dissociate the cells from the tumor tissue according to the manufacturer’s instructions. The samples were incubated in a 37 °C orbital shaker (KS 4000 ic control, IKA, Königswinter, Germany) at 300 rpm for 90 min. After incubation, the dissociated tissue was placed in DMEM/Ham’s F12 (1:3 ratio) growth medium supplemented with 5% fetal bovine serum (Corning, NY, USA), antibiotic-antimycotic solution, 4 µg/mL hydrocortisone (Sigma-Aldrich Chemie GmbH, Taufkirchen, Germany), 1 µg/mL insulin (Sigma-Aldrich Chemie GmbH, Taufkirchen, Germany), 10 ng/mL epidermal growth factor (BioLegend, San Diego, CA, USA), and 24 µg/mL adenine (Sigma-Aldrich Chemie GmbH, Taufkirchen, Germany). The DMEM and Ham’s F12 growth media were purchased from Sigma-Aldrich Chemie GmbH (Taufkirchen, Germany).
(§7) The dissociated tissue was cultured in T-25 cell culture flasks until cell attachment was observed before the medium was replaced. If no cell attachment was achieved within 7 days, the sample was discarded. Successful patient-derived cultures were maintained at 37 °C in a humidified atmosphere with 5% CO2 and grown to confluence before undergoing further experiments. […] Partial trypsinization was performed by detaching the fibroblast-like cells with 1 mL of 0.05% trypsin for 1 min at 37 °C, followed by 2 min at room temperature (RT).
as §1
(§8) The primary cells were seeded in black, clear bottom 384-well cell culture microplates (Thermo Fisher Scientific, Waltham, MA, USA) in 50 µL of cell growth medium at a density of 1000 cells per well. The compounds were administered 72 h after seeding. The treatment lasted 7 days.
as §3

[3] = tested on: Cancer cells (CK8/18+) of patient-derived NSCLC cultures; experiment: Cytotoxicity in patient-derived NSCLC cultures, cancer cells; details: 7 days treatment
Method: as §5, §6, §7, §1, §8, §3

[4] = tested on: NCI-H460/R cells; experiment: Cytotoxicity by immunofluorescence cell scoring (cell counts), multidrug-resistant NSCLC cell line; details: 24 h treatment
Excerpt: Human non-small cell lung carcinoma cells (NCI-H460) were purchased from the American Type Culture Collection (Rockville, MD, USA), and normal embryonic lung fibroblasts (MRC-5) were purchased from the European Collection of Authenticated Cell Cultures (Salisbury, UK). Multidrug-resistant NCI-H460/R cells overexpressing ABCB1 were selected from the NCI-H460 cells after selective pressure with doxorubicin [21]. All the cell lines were maintained in MEM medium (Sigma-Aldrich Chemie GmbH, Taufkirchen, Germany) supplemented with 10% FBS, 2 mM L-glutamine, and antibiotic-antimycotic solution. All the cell lines were maintained at 37 °C in a humidified atmosphere with 5% CO2.
as §1, §2, §3, §4

[5] = tested on: NCI-H460 cells; experiment: Cytotoxicity by immunofluorescence cell scoring (cell counts), NSCLC cell line; details: 24 h treatment
Method: as §1, §2, §3, §4

[6] = tested on: ABCB1 expression in MRC-5 cells; experiment: Immunofluorescence assay of MDR marker ABCB1 expression; details: five concentrations, 24 h
Method: as §1, §2, §3, §4

[7] = tested on: ABCC1 expression in cancer cells (CK8/18+); experiment: Immunofluorescence assay of ABCC1 expression in patient-derived NSCLC cultures; details: 7 days
Method: as §5, §6, §7, §1, §8, §3

[8] = tested on: ABCB1 expression in cancer cells (CK8/18+); experiment: Immunofluorescence assay of ABCB1 expression in patient-derived NSCLC cultures; details: 7 days
Method: as §5, §6, §7, §1, §8, §3

[9] = MRC-5 (co-culture with NCI-H460)
[10] = MRC-5 (co-culture with NCI-H460/R)
[11] = culture TR58, cancer cells (CK8/18+)
[12] = culture TR64, cancer cells (CK8/18+)
[13] = culture TR65, cancer cells (CK8/18+)
[14] = culture TR84, cancer cells (CK8/18+)
[15] = culture TR87, cancer cells (CK8/18+)

N.N.[Cl][Pt][Cl] [Cisplatin, cisplatin]
IC50 [1, 9]: > 15 µM | IC50 [1, 10]: > 15 µM | IC50 ([1]; MRC-5 monoculture): 14.7 µM | IC50 ([2]; culture TR58, non-cancer cells (CK8/18-)): 5.1 µM | IC50 ([2]; culture TR64, non-cancer cells (CK8/18-)): 8.26 µM | IC50 ([2]; culture TR65, non-cancer cells (CK8/18-)): 1.21 µM | IC50 ([2]; culture TR84, non-cancer cells (CK8/18-)): 0.789 µM | IC50 ([2]; culture TR87, non-cancer cells (CK8/18-)): 3.38 µM | IC50 [3, 11]: 5.78 µM | IC50 [3, 12]: 6.07 µM | IC50 [3, 13]: 14.6 µM | IC50 [3, 14]: 2.11 µM | IC50 [3, 15]: 4.82 µM | IC50 ([4]; NCI-H460/R (co-culture with MRC-5)): 5.6 µM | IC50 ([4]; NCI-H460/R monoculture): 5.33 µM | IC50 ([5]; NCI-H460 (co-culture with MRC-5)): 9.79 µM | IC50 ([5]; NCI-H460 monoculture): 5.71 µM | ABCB1 Expression [6, 9]: no change | ABCB1 Expression [6, 10]: no change | ABCB1 Expression ([6]; MRC-5 monoculture): no change | ABCC1 expression [7, 11]: no change | ABCC1 expression [7, 12]: increase (An increase in ABCB1, ABCC1, or ABCG2 expression of at least 20% at a minimum of one concentration is shown in the table.) | ABCC1 expression [7, 13]: increase (An increase in ABCB1, ABCC1, or ABCG2 expression of at least 20% at a minimum of one concentration is shown in the table.) | ABCC1 expression [7, 14]: increase (An increase in ABCB1, ABCC1, or ABCG2 expression of at least 20% at a minimum of one concentration is shown in the table.) | ABCC1 expression [7, 15]: increase (An increase in ABCB1, ABCC1, or ABCG2 expression of at least 20% at a minimum of one concentration is shown in the table.) | ABCB1 Expression [8, 11]: no change | ABCB1 Expression [8, 12]: increase (An increase in ABCB1, ABCC1, or ABCG2 expression of at least 20% at a minimum of one concentration is shown in the table.) | ABCB1 Expression [8, 13]: increase (An increase in ABCB1, ABCC1, or ABCG2 expression of at least 20% at a minimum of one concentration is shown in the table.) | ABCB1 Expression [8, 14]: increase (An increase in ABCB1, ABCC1, or ABCG2 expression of at least 20% at a minimum of one concentration is shown in the table.) | ABCB1 Expression [8, 15]: increase (An increase in ABCB1, ABCC1, or ABCG2 expression of at least 20% at a minimum of one concentration is shown in the table.)

CC(=O)O[C@@]12CO[C@@H]1C[C@H](O)[C@@]1(C)C(=O)[C@H](O)C3=C(C)[C@@H](OC(=O)[C@H](O)[C@@H](NC(=O)OC(C)(C)C)c4ccccc4)C[C@@](O)([C@@H](OC(=O)c4ccccc4)[C@H]21)C3(C)C [Docetaxel, docetaxel]
IC50 ([1]; Homo sapiens, MRC5, 24 h, MRC-5 (co-culture with NCI-H460)): > 5 µM | IC50 ([1]; Homo sapiens, MRC5, 24 h, MRC-5 monoculture): > 5 µM | IC50 ([1]; Homo sapiens, MRC5, MRC-5 (co-culture with NCI-H460/R)): > 5 µM | IC50 ([2]; Homo sapiens, 168 h, culture TR58, non-cancer cells (CK8/18-)): 1.59 µM | IC50 ([2]; Homo sapiens, 168 h, culture TR64, non-cancer cells (CK8/18-)): 2.73 µM | IC50 ([2]; Homo sapiens, 168 h, culture TR65, non-cancer cells (CK8/18-)): 0.461 µM | IC50 ([2]; Homo sapiens, 168 h, culture TR84, non-cancer cells (CK8/18-)): 0.182 µM | IC50 ([2]; Homo sapiens, 168 h, culture TR87, non-cancer cells (CK8/18-)): 3.05 µM | IC50 ([3]; Homo sapiens, 168 h, culture TR58, cancer cells (CK8/18+)): 1.31 µM | IC50 ([3]; Homo sapiens, 168 h, culture TR64, cancer cells (CK8/18+)): 1.56 µM | IC50 ([3]; Homo sapiens, 168 h, culture TR65, cancer cells (CK8/18+)): > 5 µM | IC50 ([3]; Homo sapiens, 168 h, culture TR84, cancer cells (CK8/18+)): 1.85 µM | IC50 ([3]; Homo sapiens, 168 h, culture TR87, cancer cells (CK8/18+)): > 5 µM | IC50 ([4]; Homo sapiens, NCI-H460/R (co-culture with MRC-5)): 0.801 µM | IC50 ([4]; Homo sapiens, NCI-H460/R monoculture): 0.704 µM | IC50 ([5]; Homo sapiens, NCI-H460, 24 h, NCI-H460 (co-culture with MRC-5)): 0.642 µM | IC50 ([5]; Homo sapiens, NCI-H460, 24 h, NCI-H460 monoculture): 0.554 µM | ABCB1 Expression [6, 9]: no change | ABCB1 Expression [6, 10]: no change | ABCB1 Expression ([6]; MRC-5 monoculture): no change | ABCC1 expression [7, 11]: no change | ABCC1 expression [7, 12]: increase (An increase in ABCB1, ABCC1, or ABCG2 expression of at least 20% at a minimum of one concentration is shown in the table.) | ABCC1 expression [7, 13]: increase (An increase in ABCB1, ABCC1, or ABCG2 expression of at least 20% at a minimum of one concentration is shown in the table.) | ABCC1 expression [7, 14]: increase (An increase in ABCB1, ABCC1, or ABCG2 expression of at least 20% at a minimum of one concentration is shown in the table.) | ABCC1 expression [7, 15]: increase (An increase in ABCB1, ABCC1, or ABCG2 expression of at least 20% at a minimum of one concentration is shown in the table.) | ABCB1 Expression [8, 11]: no change | ABCB1 Expression [8, 12]: increase (An increase in ABCB1, ABCC1, or ABCG2 expression of at least 20% at a minimum of one concentration is shown in the table.) | ABCB1 Expression [8, 13]: no change | ABCB1 Expression [8, 14]: increase (An increase in ABCB1, ABCC1, or ABCG2 expression of at least 20% at a minimum of one concentration is shown in the table.) | ABCB1 Expression [8, 15]: increase (An increase in ABCB1, ABCC1, or ABCG2 expression of at least 20% at a minimum of one concentration is shown in the table.)
